The results in this text go back to patent US10688143B2, “Composition containing extract or fraction of genus Justicia plant” (priority 2014, dated 2020).

In general, inhibition refers to the drop in the measured response relative to a control, in per cent.

Structures are written as SMILES. Like-named read-outs stand apart in the source and are kept apart here.

Experiment [1] has as its system U266B1 cells. Put plainly: Inhibition of IgE antibody secretion in U266B1 cells (IgE ELISA). It counts as cell-based.
Description: The U266B1 cells used were purchased from the American Tissue Cell Culture (ATCC # TIB-196). Specifically, U266B1 cells were diluted in RPMI medium containing 15% fetal bovine serum (FBS) and antibiotics (100 U/mL of penicillin and 100 μg/mL of streptomycin) at a concentration of 2×10^5 cells/mL, and then the dilution was dispensed in a 24-well plate at a concentration of 400 μl/well and in a 96-well plate at a concentration of 100 μl/well, and incubated in a 5% CO2 incubator at 37° C. for 72 hours.
The U266B1 cells were treated with 5 mg/mL of each of the Justicia procumbens L. extracts and fractions (prepared in Preparation Examples 1 and 2 and shown in Tables 1 to 5). The medium in the 24-well plate was used to measure IgE antibody secretion, and the 96-well plate was used to measure cytotoxicity.
For measurement of IgE antibody secretion, the medium in the 24-well plate was collected and centrifuged at 125×g for 5 minutes to remove debris. 100 g of the medium was diluted 10-fold, and then the degree of IgE secretion was measured using IgE enzyme-linked immonosorbent assay (ELISA, Komabiotech Inc).
In experiment [2] the test system is MC/9 mouse mast cells. Briefly: Degranulation inhibition (β-hexosaminidase secretion) in MC/9 mast cells induced with PMA/A23187. It counts as cell-based.
Description: (§1) MC/9 mouse mast cells were purchased from the American Tissue Cell Culture (ATCC # CRL-8306), and RBL-2H3 rat basophilic cells were purchased from the Korean Cell Link Bank (KCLB #22256). MC/9 mast cells and RBL-2H3 basophils were diluted at concentrations of 2×10^6 cells/mL and 5×10^5 cells/mL, respectively, and 400 μl of each of the dilutions was dispensed into each well of 24-well plates. Each well was pretreated with 10 μg/mL or 20 μg/mL of each of the extracts and fractions (prepared in Preparation Examples 1 and 2 and shown in Tables 1 to 5 above) for 30 minutes, and then degranulation of the cells was induced with 200 nM PMA/10 mM A23187 for 1 hour. […] The absorbance at 405 nm was measured, and β-hexosaminidase secretion (%) was calculated using the following equation 2: β-hexosaminidase secretion (%)={absorbance of medium/(absorbance of cell lysate+absorbance of medium)}×100 Equation 2
(§2) Based on β-hexosaminidase secretion (%) obtained using equation 2 above, the degranulation inhibitory ability of each of the Justicia procumbens L. extracts was calculated using the following equation 3 (β-heXo: β-hexosaminidase): Degranulation inhibitory ability (%)={(β-hexo secretion % of test group−β-hexo secretion % of normal group)/(β-hexo secretion % of control group−β-hexo secretion % of normal group)}×100 Equation 3
For experiment [3], the system named is RBL-2H3 rat basophilic cells. Put plainly: Degranulation inhibition (β-hexosaminidase secretion) in RBL-2H3 basophils induced with PMA/A23187. It counts as cell-based.
Description: as §1, §2
Experiment [4] relates to Balb/c mouse rhinitis models. Briefly: Inhibition of IgE secretion in Balb/c mouse rhinitis models (ovalbumin). As to conditions: extract 200 mg/kg oral daily for 1 week, dexamethasone 3 mg/kg intraperitoneal. The format is in vivo. The protocol: Specifically, 5-week-old Balb/c mice were purchased and acclimated for 1 week. On 0, 7 and 14 days of one week of acclimation, the mice were systematically sensitized by intraperitoneally injecting 0.1% ovalbumin (OVA: 1 mg/mL, Al(OH)3: 20 mg/ml) in an amount of 100 μl/mouse. […] As a positive control, 3 mg/kg of dexamethasone was intraperitoneally administered. After 1 hour, 0.4% ovalbumin solution was dropped into the nasal cavity. In the afternoon, 0.4% ovalbumin solution was dropped once more into the nasal cavity. […] The inhibition (%) of IgE secretion was calculated using the following equation 4: Inhibition (%) of secretion=100−{(concentration in test group−concentration in normal group)/(concentration in ovalbumin-induced group−concentration in normal group)}×100 Equation 4

Experiment [5] relates to Balb/c mouse asthma models. Briefly: Inhibition of asthma in Balb/c mouse asthma models (ovalbumin): serum IgE, BALF IL-4, IL-5, inflammatory cells. The format is in vivo. As to conditions: extracts 200 mg/kg oral daily for 10 days, dexamethasone 3 mg/kg intraperitoneal. The protocol:
5-week-old Balb/c mice were purchased and acclimated for 1 week. On 0 and 14 days of 1 week of acclimation, the mice were systematically sensitized by intraperitoneally administering 0.1% ovalbumin (OVA: 1 mg/mL, Al(OH)3: 20 mg/mL) in an amount of 100 μl/mouse. […] As a positive control, 3 mg/kg of dexamethasone was administered intraperitoneally. After one hour, 0.2% ovalbumin solution was sprayed and inhaled into the mice for 1 hour by use of a nebulizer (PARI Boy SX, Germany GmbH). 5 hours after final sensitization (30 days), the mice were biopsied, and whole blood was sampled from the mice and centrifuged at 12000 rpm for 10 minutes to separate serum. In addition, the lung tissue was isolated from each mouse and flushed with 1 mL of phosphate buffered saline through tracheostomy to collect bronchoalveolar lavage fluid (BALF). The collected bronchoalveolar lavage fluid was centrifuged at 3000 rpm for 10 minutes, and the supernatant was used to measure physiologically active substances (IL-4, and IL-5), and the pellets were used to measure the number of inflammatory cells.
The IgE concentration in the separated serum was measured using IgE enzyme-linked immonosorbent assay (ELISA, Komabiotech Inc.), and the physiologically active substances (interleukin-4 (IL-4) and interleukin-5 (IL-5)) in the isolated bronchoalveolar lavage fluid were measured using an enzyme-linked immonosorbent assay (ELISA, IL-4: Enzo # ADI-900-043, IL-5: R&D system # M5000) corresponding to each substance. The results of the measurement are shown in Table 14 below, and the ability of each extract to inhibit IgE secretion was calculated in the same manner as equation 4 shown in Example 3.
In addition, the bronchoalveolar lavage fluid pellets were re-dissolved in 0.5 mL of phosphate buffered saline, and 0.1 mL of the solution was added to each well of a 96-well plate and centrifuged at 800 rpm for 5 minutes to attach the cells to the bottom (3 wells per sample). Then, each sample was stained with Diff Quik staining solution (Sysmex), and photographed with a microscope at 2-6 random sites. About 200 cells per sample were counted to calculate the percentage (%) of inflammatory cells of each group. The total number of inflammatory cells was measured with a microscope using a hematocytometer, and the number of basophils was calculated using the percentage (%) of each inflammatory cells, and is shown in FIG. 1. Statistical processing was performed using an SPSS program, and a Levene test was performed for a test for equal variance, and significance was tested by one-way analysis (ANOVA).

As for `C[C@@H]1C[C@H]2[C@@H]3CCC4=CC(=O)C=C[C@]4(C)[C@@]3(F)[C@@H](O)C[C@]2(C)[C@@]1(O)C(=O)CO` [Dexamethasone], the inhibition at 5 µg/mL in experiment [1] (U266B1, 5 μg/mL, organic solvent extracts and fractions, Table 8, read-out: IgE secretion inhibition (%) (n = 3, Mean ± SE)) worked out at 4 ± 3.4%. The inhibition at 5 µg/mL in experiment [1] (U266B1, concentration of test group 5 μg/mL, Table 6, read-out: IgE secretion inhibition (%) (n = 4, Mean ± SE)) came out at 8 ± 15%. Besides, the “Degranulation inhibition (%) (n = 3, Mean ± SE)” value in experiment [2] (MC/9, 10 μg/mL, Table 11) stood at 35 ± 0.2%. Further, the “Inhibition (%) of degranulation (n = 3, Mean ± SE)” value in experiment [2] (MC/9, 20 μg/mL, Table 9) is 64 ± 0.2%. For the same compound, the inhibition at 10 µg/mL in experiment [3] (RBL-2H3, 10 μg/mL, Table 11, read-out: Degranulation inhibition (%) (n = 3, Mean ± SE)) was determined as 14 ± 3%. Further, the inhibition at 20 µg/mL in experiment [3] (RBL-2H3, 20 μg/mL, Table 9, read-out: Inhibition (%) of degranulation (n = 3, Mean ± SE)) worked out at 18 ± 1%. The “Serum IgE concentration (ng/mL, Mean ± SE)” value in experiment [4] is on record as 32.2 ± 4.4 ng/mL. In addition, the “Inhibition of IgE secretion (%, Mean ± SE)” value in experiment [4] (equation 4) worked out at 67.3 ± 6.3%. Further, in experiment [5], the “Bronchoalveolar lavage fluid IL-4 (inhibition of IgE secretion, (%)), Mean ± SD” value is listed as “(72.7 ± 3.8) %”; the “Bronchoalveolar lavage fluid IL-4 (pg/mL), Mean ± SD” value is reported as 56.0 ± 2.1 # pg/mL; the “Bronchoalveolar lavage fluid IL-5 (inhibition of IgE secretion, (%)), Mean ± SD” value is “(98.7 ± 9.2) %”; the “Bronchoalveolar lavage fluid IL-5 (pg/mL), Mean ± SD” value is on record as 4.8 ± 3.2 # pg/mL. For the same compound, the “Serum IgE concentration (ng/mL), Mean ± SD” value in experiment [5] is given as 85.8 ± 4.9 # ng/mL. Further, the “Serum IgE (inhibition of IgE secretion, (%)), Mean ± SD” value in experiment [5] (equation 4) is “(25.0 ± 5.8) %”.
